Tests used:
NOMO1 [1] = experiment: cell viability relative to DMSO control; higher = less cytotoxic; conditions: HPLM + 10% dialyzed FBS, 48 h
Summary of the method: (§1)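 NOMO1 or SEM cells were plated at 500 cells/well and P12-Ichikawa cells at 1000 cells/well in 1536-well plates (5 μl), after each leukemia line had been adapted for at least four passages in each medium. Pin dosing delivered library compounds in DMSO at 11 threefold concentrations, 47 μM to 0.79 nM. CellTiter-Glo One luminescence was read after 48 h at 37°C. Viability is reported as a per-plate percentage of DMSO wells, with cell-free wells as background.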

SEM cells [2] = experiment: as above; conditions: 48 h
Summary of the method: as §1

P12-Ichikawa = experiment: AUC of viability dose-response curve (% viability x log10 dose units); higher = less sensitive; conditions: 48 h
Summary of the method: (§2)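 Over 48 h at 37°C, leukemia cells in 1536-well plates (500 or 1000 cells/well), adapted to each medium, received library compounds in DMSO at 11 threefold doses from 47 μM to 0.79 nM. CellTiter-Glo One luminescence, normalised per plate to DMSO and cell-free wells, was fitted by a four-parameter log-logistic function of log10 dose. The area under the curve was then integrated by trapezoidal rule, after scaling curves above full viability and removing those that failed quality control.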

NOMO1 [3] = experiment: as above; conditions: 48 h
Summary of the method: as §2

SEM cells [4] = experiment: as above; conditions: 48 h
Summary of the method: as §2

CCCCCCCCCCCC/1=C(O)/C(=O)/C=C(O)\C1=O
Conditions	AUC of viability dose-response curve	cell viability [%]
NOMO1 [1], 0.000781 µM	–	112
NOMO1 [1], 0.00234 µM	–	116
NOMO1 [1], 0.00702 µM	–	142
NOMO1 [1], 0.0211 µM	–	127
NOMO1 [1], 0.0632 µM	–	154
NOMO1 [1], 0.19 µM	–	151
NOMO1 [1], 0.569 µM	–	51.1
NOMO1 [1], 1.71 µM	–	39.4
NOMO1 [1], 5.12 µM	–	40.9
NOMO1 [1], 15.4 µM	–	35.5
NOMO1 [1], 46.1 µM	–	28.6
NOMO1 [3], HPLM + 10% dialyzed FBS	326	–
NOMO1 [3], RPMI 5 mM glucose + 10% FBS	301	–
NOMO1 [3], RPMI 5 mM glucose + 10% dialyzed FBS	326	–
P12-Ichikawa, HPLM + 10% dialyzed FBS	357	–
P12-Ichikawa, RPMI 5 mM glucose + 10% FBS	357	–
P12-Ichikawa, RPMI 5 mM glucose + 10% dialyzed FBS	375	–
SEM cells [4], HPLM + 10% dialyzed FBS	462	–
SEM cells [4], RPMI 5 mM glucose + 10% FBS	454	–
SEM cells [4], RPMI 5 mM glucose + 10% dialyzed FBS	457	–

cell viability [%], SEM cells [2]
Conditions	HPLM + 10% dialyzed FBS	RPMI 5 mM glucose + 10% dialyzed FBS
0.000781 µM	98.9	107
0.00234 µM	111	120
0.00702 µM	126	126
0.0211 µM	132	132
0.0632 µM	128	131
0.19 µM	138	138
0.569 µM	118	134
1.71 µM	144	140
5.12 µM	130	137
15.4 µM	127	146
46.1 µM	130	129

CC[C@H]1OC(=O)[C@H](C)[C@@H](O[C@H]2C[C@@](C)(OC)[C@@H](O)[C@H](C)O2)[C@H](C)[C@@H](O[C@@H]2O[C@H](C)C[C@H](N(C)C)[C@H]2O)[C@](C)(O)C[C@@H](C)CN(C)[C@H](C)[C@@H](O)[C@]1(C)O
SEM cells [2], HPLM + 10% dialyzed FBS
Conditions	cell viability [%]
0.000781 µM	85.1
0.00234 µM	122
0.00702 µM	124
0.0211 µM	129
0.0632 µM	133
0.19 µM	127
0.569 µM	149
1.71 µM	119
5.12 µM	129
15.4 µM	133
46.1 µM	96.6

AUC of viability dose-response curve
Conditions	NOMO1 [3]	P12-Ichikawa	SEM cells [4]
HPLM + 10% dialyzed FBS	458	458	458
RPMI 5 mM glucose + 10% FBS	419	452	458
RPMI 5 mM glucose + 10% dialyzed FBS	446	459	467

COC1=CC=C2[N](CCCN(C)C)C=C(C2=C1)C/3=C(/C(=O)NC3=O)C4=C[NH]C5=C4C=CC=C5
SEM cells [2], HPLM + 10% dialyzed FBS
Conditions	cell viability [%]
0.000781 µM	107
0.00234 µM	123
0.00702 µM	123
0.0211 µM	123
0.0632 µM	122
0.19 µM	57.2
0.569 µM	132
1.71 µM	111
5.12 µM	88.4
15.4 µM	67.4
46.1 µM	8.06

AUC of viability dose-response curve
Conditions	NOMO1 [3]	P12-Ichikawa	SEM cells [4]
HPLM + 10% dialyzed FBS	471	456	425
RPMI 5 mM glucose + 10% FBS	471	453	365
RPMI 5 mM glucose + 10% dialyzed FBS	472	452	387

CN1C2CCC1CC(OC(=O)C(CO)c1ccccc1)C2 (stereo not drawn)
AUC of viability dose-response curve
Conditions	NOMO1 [3]	P12-Ichikawa	SEM cells [4]
HPLM + 10% dialyzed FBS	467	454	464
RPMI 5 mM glucose + 10% FBS	463	465	439
RPMI 5 mM glucose + 10% dialyzed FBS	472	469	474

NCCc1c[nH]cn1
AUC of viability dose-response curve
Conditions	NOMO1 [3]	P12-Ichikawa	SEM cells [4]
HPLM + 10% dialyzed FBS	466	456	473
RPMI 5 mM glucose + 10% FBS	460	449	437
RPMI 5 mM glucose + 10% dialyzed FBS	444	461	432

O=C(Nc1cccc(Br)c1)c1cccc([S+](=O)([O-])N2CCCCCC2)c1
AUC of viability dose-response curve
Conditions	NOMO1 [3]	P12-Ichikawa	SEM cells [4]
HPLM + 10% dialyzed FBS	462	450	447
RPMI 5 mM glucose + 10% FBS	460	457	436
RPMI 5 mM glucose + 10% dialyzed FBS	470	464	441

OCCN1C[C@H](O)[C@@H](O)[C@H](O)[C@H]1CO
SEM cells [2], HPLM + 10% dialyzed FBS
Conditions	cell viability [%]
0.000781 µM	93.6
0.00234 µM	116
0.00702 µM	129
0.0211 µM	118
0.0632 µM	86.6
0.19 µM	114
0.569 µM	138
1.71 µM	125
5.12 µM	134
15.4 µM	136
46.1 µM	123

AUC of viability dose-response curve
Conditions	NOMO1 [3]	P12-Ichikawa	SEM cells [4]
HPLM + 10% dialyzed FBS	296	365	432
RPMI 5 mM glucose + 10% FBS	266	371	417
RPMI 5 mM glucose + 10% dialyzed FBS	296	377	384

NC(=O)c1noc([C@H](CCCC2CCCCC2)CC(=O)NO)n1
AUC of viability dose-response curve
Conditions	NOMO1 [3]	P12-Ichikawa	SEM cells [4]
HPLM + 10% dialyzed FBS	431	441	428
RPMI 5 mM glucose + 10% FBS	424	422	414
RPMI 5 mM glucose + 10% dialyzed FBS	441	421	429

Cn1ccc2cc3c(cc21)CCN3C(=O)Nc1cccnc1
SEM cells [2], HPLM + 10% dialyzed FBS
Conditions	cell viability [%]
0.000781 µM	100
0.00234 µM	113
0.00702 µM	132
0.0211 µM	116
0.0632 µM	123
0.19 µM	158
0.569 µM	140
1.71 µM	127
5.12 µM	125
15.4 µM	137
46.1 µM	59.8

AUC of viability dose-response curve
Conditions	NOMO1 [3]	P12-Ichikawa	SEM cells [4]
HPLM + 10% dialyzed FBS	460	464	464
RPMI 5 mM glucose + 10% FBS	451	462	461
RPMI 5 mM glucose + 10% dialyzed FBS	466	463	461

CCOC(=O)[C@H](CCc1ccccc1)N[C@H]1CS[C@H](c2cccs2)CN(CC(=O)O)C1=O.Cl
AUC of viability dose-response curve
Conditions	NOMO1 [3]	P12-Ichikawa	SEM cells [4]
HPLM + 10% dialyzed FBS	384	400	461
RPMI 5 mM glucose + 10% FBS	408	401	437
RPMI 5 mM glucose + 10% dialyzed FBS	395	421	468

COC(=O)N[C@H](C(=O)N1CCC[C@H]1c1ncc(-c2ccc(-c3ccc(-c4cnc([C@@H]5CCCN5C(=O)[C@@H](NC(=O)OC)C(C)C)[nH]4)cc3)cc2)[nH]1)C(C)C
SEM cells [2], HPLM + 10% dialyzed FBS
Conditions	cell viability [%]
0.000781 µM	90.4
0.00234 µM	116
0.00702 µM	132
0.0211 µM	125
0.0632 µM	129
0.19 µM	126
0.569 µM	117
1.71 µM	131
5.12 µM	133
15.4 µM	126
46.1 µM	98.3

AUC of viability dose-response curve
Conditions	NOMO1 [3]	P12-Ichikawa	SEM cells [4]
HPLM + 10% dialyzed FBS	437	473	468
RPMI 5 mM glucose + 10% FBS	458	474	468
RPMI 5 mM glucose + 10% dialyzed FBS	470	473	460

COc1c(O)cc2c(c1O)[C@@H]1O[C@H](CO)[C@@H](O)[C@H](O)[C@H]1OC2=O
AUC of viability dose-response curve
Conditions	NOMO1 [3]	P12-Ichikawa	SEM cells [4]
HPLM + 10% dialyzed FBS	419	432	431
RPMI 5 mM glucose + 10% FBS	448	432	394
RPMI 5 mM glucose + 10% dialyzed FBS	454	427	409

Clc1ccc2ncc(-c3cccc(NC4CNC4)n3)n2c1
cell viability [%], SEM cells [2]
Conditions	HPLM + 10% dialyzed FBS	RPMI 5 mM glucose + 10% FBS
0.000781 µM	120	119
0.00234 µM	121	122
0.00702 µM	125	131
0.0211 µM	125	121
0.0632 µM	136	147
0.19 µM	122	141
0.569 µM	115	119
1.71 µM	113	115
5.12 µM	77.5	105
15.4 µM	67.1	76.9
46.1 µM	45.8	47.6

AUC of viability dose-response curve
Conditions	NOMO1 [3]	P12-Ichikawa	SEM cells [4]
HPLM + 10% dialyzed FBS	433	441	412
RPMI 5 mM glucose + 10% FBS	455	439	427
RPMI 5 mM glucose + 10% dialyzed FBS	443	443	411

FC(F)(F)c1ccc(CNc2ccc(Cc3c[nH]c4ncc(Cl)cc34)cn2)cn1
AUC of viability dose-response curve
Conditions	HPLM + 10% dialyzed FBS	RPMI 5 mM glucose + 10% FBS	RPMI 5 mM glucose + 10% dialyzed FBS
P12-Ichikawa	268	367	370
SEM cells [4]	317	245	314
